Assay results from patent publication US5519055A, “Substituted kynurenines and process for their preparation” (University of Maryland at Baltimore, priority 1993, dated 1996).
Blank lines part the entries; values can stand above or below the molecule they belong to.

Tests used:
[1] = biological target: T1, KAT (partially purified enzyme preparation) (Rattus norvegicus, UniProt Q08415); assay: Kinetic analysis of KAT inhibitors using a partially purified enzyme preparation; type: biochemical; conditions: KYN varied 2 μM to 2 mM, 1 mM pyruvate, pH 8.0, 2 h at 37° C., double reciprocal plots
T1 construct: a preparation of partially purified enzyme in a total volume of 0.1 ml; from tissue
T1 sequence (Q08415 1-423): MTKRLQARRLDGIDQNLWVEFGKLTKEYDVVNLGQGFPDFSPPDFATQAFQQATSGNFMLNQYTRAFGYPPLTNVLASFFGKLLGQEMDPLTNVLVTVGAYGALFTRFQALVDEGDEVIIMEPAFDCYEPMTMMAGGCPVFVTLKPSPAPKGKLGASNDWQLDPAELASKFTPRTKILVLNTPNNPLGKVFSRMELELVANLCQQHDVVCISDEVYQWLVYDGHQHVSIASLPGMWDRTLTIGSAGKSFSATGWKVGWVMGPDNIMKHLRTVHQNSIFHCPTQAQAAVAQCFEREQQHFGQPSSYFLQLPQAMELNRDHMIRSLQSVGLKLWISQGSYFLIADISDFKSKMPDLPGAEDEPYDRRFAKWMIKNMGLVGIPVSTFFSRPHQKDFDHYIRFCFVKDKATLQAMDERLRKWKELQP
Procedure: C) Kinetic analysis of KAT inhibitors using a partially purified enzyme preparation (Brain Research, 534, 37-44 (9)
The reaction mixture contained [^3 H]KYN (30 nCi), diluted with unlabelled KYN to yield a final concentration of 2 μM, 1 mM pyruvate, 70 μM pyridoxal 5'-phosphate, 150 mM Tris-acetate buffer, pH 8.0, and a preparation of partially purified enzyme in a total volume of 0.1 ml. Test compounds were included in the incubation mixture as needed. The reaction was started by the addition of pyruvate. After incubation for 2 h at 37° C., the reaction was terminated by the addition of 14 μl of 50% (w/w) trichloroacetic acid. Subsequently, 1 ml of 0.1M HCl was added and denaturated protein was removed by a 4-min centrifugation in a Beckman 52 B microfuge. 1 ml of the resulting supernatant was applied to a Dowex 50 W column (0.5×1.0 cm; H^+ form) and washed with 1 ml of 0.1M HCl, followed by 1 ml of distilled water. [^3 H]KYNA was eluted with 2 ml of distilled water and quantitated by liquid scintillation spectrometry. Enzyme measurements were performed in triplicate samples. Blanks were obtained by using an enzyme preparation which had been heat-deactivated for 10 min in a boiling water bath. […] Double reciprocal plots were constructed and lines of best fit were determined by linear regression analysis.

[2] = system: KYNA production by rat tissue slices; assay: Determination of inhibition of KYNA production by rat tissue slices (cerebral cortex); type: cell-based; conditions: 50 μM L-KYN, 2 h at 37° C., pH 7.4
Description: (§1) Compounds which act as KAT inhibitors may be identified using standard test, for example, measuring their ability to inhibit KAT activity in rat brain homogenate as described, for example, in J. Neurochem., 57, 533-540 (1991) or their inhibitory effect on Kynurenic Acid (KYNA) production by rat brain slices as described, for example, in J. Neurochem., 52, 1629-1636 (1989). KAT catalyzes the biosynthesis of KYNA from Kynurenine (KYN): [drawing 2] and it is singularly responsible for the regulation of extracellular KYNA concentrations in the brain (J. Neurochem., 57, 533-540, 1991).
B) Determination of inhibition of KYNA production by rat tissue slices
Routinely, slices (base 1×1 mm; weight ≈1.5 mg/slice) from the cerebral cortex were separated on ice and transferred to culture wells (10 slices/well) containing 1 ml of oxygenated Krebs-Ringer buffer (NaCl, 118.5 mM; KCl, 4.75 mM; CaCl 2, 1.77 mM; MgSO4, 1.18 mM; NaH2 PO4, 12.9 mM; NaH2 PO4, 3 mM; glucose, 5mM; pH 7.4). Subsequently, the tissue was preincubated for 10 min at 37° C. and incubated further for 2 h at 37° C., in the presence of 50 μM L-KYN in an oxygenated chamber, on a shaking water bath. Compounds of the present invention were included in the incubation mixture as needed. Following incubation, the culture wells were immediately placed on ice, and the slices were rapidly separated from the incubation medium.
For KYNA determination, 1 ml samples of the incubation medium were immersed in a boiling water bath for 10 min, and the precipitated proteins were removed by centrifugation (8,730× g, 10 min). The supernatants were diluted (1:1, v/v) with 0.2M HCl and applied to Dowex 50 W (hydrogen form, Sigma) cation-exchange columns (0.5×2 cm). Subsequently, the columns were washed with 1 ml of 0.1M HCl and 1 ml of water, and the fraction containing KYNA was eluted with 2 ml of water. The eluates were applied to a 3-μm C18 HPLC column (100×3.2 internal diameter, Bioanalytical Systems, West Lafayette, Ind., U.S.A.), and KYNA was isocratically eluted with a mobile phase containing 50 mM ammonium acetate and 5% methanol at a flow rate of 0.5 ml/min. Under these conditions, the retention time of KYNA was ≈7 min.
Data were recorded and calculated with a Hewlett-Packard 3390A integrator connected to a model 160 UV absorbance detector (Beckman Instruments, Berkeley, Calif., U.S.A.) set at 340 nm.
In this assay, (D,L)-2-amino-4-(2-amino-5-chlorophenyl)-4-oxo butyric acid, also known as D,L-5-chloro-kynurenine, was tested with the following results: […]

[3] = biological target: Kynurenine Aminotransferase (KAT); assay: Determination of KAT activity inhibition in rat brain homogenate; type: biochemical; conditions: 2 μM [3H]KYN, 2 h at 37° C., pH 8.0, read-out: ID50 (inhibition of KAT enzyme activity)
Description: as §1
A) Determination of KAT activity inhibition in rat brain homogenate
KAT was measured as described in detail by Okuno et al. (Measurement of rat brain kynurenine aminotransferase at physiological kynurenine concentrations, J. Neurochem., 57, 533-540, 1991).
Briefly, animals were killed by decapitation and the brain tissue was homogenized (1:5 v/w in 5 mM Trisacetate buffer, pH 8.0, containing 10 mM 2-mercaptoethanol and 50 μM pyridoxal 5'-phosphate) and incubated for 2 h at 37° C. in the presence of 2 μM [^3 H]KYN (30 nCi), 1 mM 2-oxoglutarate and 70 μM pyridoxal 5'-phosphate in 150 mM Tris-acetate buffer, pH 8.0. […]
Newly synthesized [^3 H]KYNA was separated from [^3 H]KYN on a Dowex 50 W cation-exchange column and quantitated by liquid scintillation spectrometry. […]

[4] = system: excitatory amino acid (EAA) receptor; conditions: J. Neurochem., 52, 1319-1328, 1989; cited from earlier work
[5] = system: glycine modulatory site of the N-methyl-D-aspartate (NMDA) receptor complex; conditions: J. Neurochem., 52, 1319-1328, 1989; cited from earlier work
[6] = substrate: Nc1ccccc1C(=O)C[C@H](N)C(=O)O; assay: purified protein, by the assay type; conditions: other: substrate KYN varied 2 μM to 2 mM, 1 mM pyruvate, pH 8.0, 2 h at 37° C., double reciprocal plots

Ki [1]: 88 µM
IC50 [3]: 78 µM
Molecule: Nc1ccc(Cl)cc1C(=O)CC(N)C(=O)O (racemic) [Example 3, 2-amino-4-(2-amino-5-chlorophenyl)-4-oxo-butyric acid]
inhibition at 25 µM ([2]; 25 μM compound): 33%
inhibition at 50 µM ([2]; 50 μM compound): 39%
inhibition at 100 µM ([2]; 100 μM compound): 56%
inhibition at 250 µM ([2]; 250 μM compound): 66%

Molecule: O=C(O)c1cc(=O)c2ccccc2[nH]1 [KYNA, Kynurenic Acid]
excitatory amino acid (EAA) receptor antagonism [4]: effective excitatory amino acid (EAA) receptor antagonist
affinity to the glycine modulatory site of the NMDA receptor complex [5]: particularly high affinity

B1: KAT (partially purified enzyme preparation) (Rattus norvegicus) (protein)
chain: MTKRLQARRLDGIDQNLWVEFGKLTKEYDVVNLGQGFPDFSPPDFATQAFQQATSGNFMLNQYTRAFGYPPLTNVLASFFGKLLGQEMDPLTNVLVTVGAYGALFTRFQALVDEGDEVIIMEPAFDCYEPMTMMAGGCPVFVTLKPSPAPKGKLGASNDWQLDPAELASKFTPRTKILVLNTPNNPLGKVFSRMELELVANLCQQHDVVCISDEVYQWLVYDGHQHVSIASLPGMWDRTLTIGSAGKSFSATGWKVGWVMGPDNIMKHLRTVHQNSIFHCPTQAQAAVAQCFEREQQHFGQPSSYFLQLPQAMELNRDHMIRSLQSVGLKLWISQGSYFLIADISDFKSKMPDLPGAEDEPYDRRFAKWMIKNMGLVGIPVSTFFSRPHQKDFDHYIRFCFVKDKATLQAMDERLRKWKELQP
Km [6]: 369 µM
